According to patent EP0909764A1, “11 Beta-Benzaldoxim-9 Alpha, 10 Alpha-epoxy-estr-4-en-derivatives, a process for their production and pharmaceutical compositions containing them” (JENAPHARM GmbH, priority 1997, dated 1999):
Each block holds one compound with its values, some of them ahead of it.

How the values were obtained:
[1] = molecular target: T1, Glucocorticoidrezeptor (Rattus norvegicus, UniProt P06536); test: Receptor binding affinity, competitive binding with 3H-Dexamethason in thymus cytosol; set-up: species or system Ratte; settings: thymus cytosol of adrenalectomised rat; tracer 3H-Dexamethason 20nM; 18 h at 0-4°C; quotient of IC50 values x 100 %
T1 construct: Rezeptoren im Cytosol aus tierischen Target-Organen; from tissue; host or cells: thymus cytosol of adrenalectomised rat
T1 sequence (P06536 1-795): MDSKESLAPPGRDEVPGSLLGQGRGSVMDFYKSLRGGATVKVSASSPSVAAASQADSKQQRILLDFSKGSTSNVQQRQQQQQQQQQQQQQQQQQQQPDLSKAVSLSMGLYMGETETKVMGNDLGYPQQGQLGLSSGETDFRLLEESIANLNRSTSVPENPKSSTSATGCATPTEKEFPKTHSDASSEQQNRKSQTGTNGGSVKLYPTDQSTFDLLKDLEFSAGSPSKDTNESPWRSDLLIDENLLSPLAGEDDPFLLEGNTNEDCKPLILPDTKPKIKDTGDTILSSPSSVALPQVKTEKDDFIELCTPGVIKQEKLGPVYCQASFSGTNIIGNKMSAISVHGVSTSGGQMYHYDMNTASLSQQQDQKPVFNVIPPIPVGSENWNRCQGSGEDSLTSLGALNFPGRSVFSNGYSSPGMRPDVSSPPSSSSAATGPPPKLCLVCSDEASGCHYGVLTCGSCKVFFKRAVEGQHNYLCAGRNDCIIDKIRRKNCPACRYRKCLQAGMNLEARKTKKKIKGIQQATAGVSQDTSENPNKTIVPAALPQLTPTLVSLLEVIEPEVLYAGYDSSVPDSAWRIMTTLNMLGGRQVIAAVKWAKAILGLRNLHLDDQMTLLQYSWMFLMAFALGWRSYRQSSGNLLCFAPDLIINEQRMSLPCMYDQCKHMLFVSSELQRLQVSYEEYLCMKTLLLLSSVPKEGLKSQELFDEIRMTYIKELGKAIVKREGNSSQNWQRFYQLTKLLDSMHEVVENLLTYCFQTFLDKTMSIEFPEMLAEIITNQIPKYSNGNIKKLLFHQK
Experimental: Die Rezeptor-Bindungsaffinität wurde bestimmt durch competitive Bindung eines spezifisch bindenden ^3H-markierten Hormons (Tracer) und der zu testenden Verbindung an Rezeptoren im Cytosol aus tierischen Target-Organen. Dabei wurden Rezeptorsättigung und Reaktionsgleichgewicht angestrebt. Folgende Inkubationsbe-dingungen wurden gewählt: • Progesteron-Rezeptor: Uterus-Cytosol des Estradiol-geprimten Kannchens, aufbe-wahrt bei -30° C. Puffer für Homogenisation und Inkubation: TED-Puffer 20 mM Tris/HCl, pH= 7,4; 1mM Ethylendiamintetraacetat, 2 mM Dithiothreitol) mit 250mM Saccharose. […] Thymi aufbewahrt bei -30 °C. Puffer: TED. Tracer: ^3H-Dexamethason, 20nM. Referenzsub-stanz: Dexamethason. • Estrogen-Rezeptor: Uterus-Cytosol des unreifen Kaninchens, aufbewahrt bei -30 °C. Puffer:TED mit 250 mM Saccharose. Tracer: ^3H-Estradiol, 3nM. Referenzsubstanz: 17β-Estradiol.
(§1) Nach einer Inkubation von Rezeptorfraktion, Tracer und Competitor für 18 h bei 0-4°C erfolgte die Trennung von gebundenem und freiem Steroid durch Einmischen von Aktivkohle/Dextran (1 % / 0,1 %), Abzentrifugieren und Messung der rezeptorgebundenen ^3H-Aktivität im Überstand.
Nach einer Inkubationsdauer von 18 Stunden bei 0-4 °C erfolgte die Trennung von gebundenen und freiem Steroid durch Einmischen von Aktivkohle/Dextran / 1%/0,1 %), abzentrifugieren und Messung der gebundenen ^3H-Aktivität im Überstand.

[2] = molecular target: T2, Progesteronrezeptor (Oryctolagus cuniculus, UniProt P06186); test: Receptor binding affinity, competitive binding with 3H-ORG 2058 in uterus cytosol; set-up: species or system Kaninchen; settings: uterus cytosol of estradiol-primed rabbit; tracer 3H-ORG 2058 5nM; 18 h at 0-4°C; quotient of IC50 values x 100 %
T2 construct: Rezeptoren im Cytosol aus tierischen Target-Organen; from tissue; host or cells: uterus cytosol of estradiol-primed rabbit
T2 sequence (P06186 1-930): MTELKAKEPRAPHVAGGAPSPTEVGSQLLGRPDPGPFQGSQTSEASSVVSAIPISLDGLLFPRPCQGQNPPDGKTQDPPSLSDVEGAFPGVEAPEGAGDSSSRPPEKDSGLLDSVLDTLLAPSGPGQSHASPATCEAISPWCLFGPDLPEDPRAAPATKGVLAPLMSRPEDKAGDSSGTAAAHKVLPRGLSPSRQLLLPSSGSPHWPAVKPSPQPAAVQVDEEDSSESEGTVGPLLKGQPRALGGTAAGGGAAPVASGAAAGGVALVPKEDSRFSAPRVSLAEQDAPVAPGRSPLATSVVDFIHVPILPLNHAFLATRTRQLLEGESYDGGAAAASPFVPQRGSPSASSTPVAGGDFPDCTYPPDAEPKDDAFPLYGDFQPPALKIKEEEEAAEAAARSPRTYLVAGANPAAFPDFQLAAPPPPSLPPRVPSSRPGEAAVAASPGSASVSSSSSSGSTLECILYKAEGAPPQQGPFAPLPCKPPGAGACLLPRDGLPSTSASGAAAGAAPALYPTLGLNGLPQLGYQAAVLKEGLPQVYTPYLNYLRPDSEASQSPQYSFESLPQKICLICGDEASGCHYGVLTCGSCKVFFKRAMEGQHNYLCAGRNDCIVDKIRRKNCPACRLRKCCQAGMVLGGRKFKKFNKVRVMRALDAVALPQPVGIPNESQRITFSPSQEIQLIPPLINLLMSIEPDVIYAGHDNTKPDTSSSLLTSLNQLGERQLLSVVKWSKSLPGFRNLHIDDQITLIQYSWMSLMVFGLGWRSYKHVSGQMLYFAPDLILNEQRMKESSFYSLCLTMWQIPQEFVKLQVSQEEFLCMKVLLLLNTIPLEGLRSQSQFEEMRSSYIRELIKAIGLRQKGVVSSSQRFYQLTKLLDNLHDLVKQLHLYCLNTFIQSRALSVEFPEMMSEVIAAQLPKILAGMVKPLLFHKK
Experimental: Die Rezeptor-Bindungsaffinität wurde bestimmt durch competitive Bindung eines spezifisch bindenden ^3H-markierten Hormons (Tracer) und der zu testenden Verbindung an Rezeptoren im Cytosol aus tierischen Target-Organen. Dabei wurden Rezeptorsättigung und Reaktionsgleichgewicht angestrebt. Folgende Inkubationsbe-dingungen wurden gewählt: • Progesteron-Rezeptor: Uterus-Cytosol des Estradiol-geprimten Kannchens, aufbe-wahrt bei -30° C. Puffer für Homogenisation und Inkubation: TED-Puffer 20 mM Tris/HCl, pH= 7,4; 1mM Ethylendiamintetraacetat, 2 mM Dithiothreitol) mit 250mM Saccharose. Tracer: ^3H-ORG 2058, 5nM; Referenzsubstanz: Progesteron. • Glucocorticoid-Rezeptor: Thymus-Cytosol der adrenalectomierten Ratte. Thymi aufbewahrt bei -30 °C. Puffer: TED. Tracer: ^3H-Dexamethason, 20nM. Referenzsub-stanz: Dexamethason. • Estrogen-Rezeptor: Uterus-Cytosol des unreifen Kaninchens, aufbewahrt bei -30 °C. Puffer:TED mit 250 mM Saccharose. Tracer: ^3H-Estradiol, 3nM. Referenzsubstanz: 17β-Estradiol.
as §1
Aus der Messung in Konzentrationsreihen wurden die IC50 für die Referenzsubstanz und für die zu testende Verbindung ermittelt und als Quotient beider Werte (x 100 %) die relative molare Bindungsaffinität bestimmt. Nach einer Inkubationsdauer von 18 Stunden bei 0-4 °C erfolgte die Trennung von gebundenen und freiem Steroid durch Einmischen von Aktivkohle/Dextran / 1%/0,1 %), abzentrifugieren und Messung der gebundenen ^3H-Aktivität im Überstand. Aus der Messung in Konzentrationsreihen wurden die IC50 für die zu testende Substanz und für die Referenzverbindung ermittelt und als Quotient beider Werte (x 100 %) die relative molare Bindungsaffinität bestimmt.

[3] = tested on: frühe Gravidität bei der Ratte; test: Inhibition of early pregnancy in the rat (early abortive effect, subcutaneous); type: in vivo; settings: day 5-7 of pregnancy, empty uteri; for komplette Graviditätshemmung N#/N: N# non-pregnant females / N mated females
Experimental: Rattenweibchen wurde im Stadium Prooestrus angepaart. Bei Nachweis von Spermien im Vaginalbereich am nächsten Tag wird dieser als Tag 1 (d =1) der Gravidität gesetzt. Die Behandlung der Ratten mit Testsubstanz oder Vehikel erfolgt mit 0,2 ml Benzoylbenzoat /Rizinusöl (1+4 v/v) subcutan vom Tag 5 bis Tag 7 (d5 -d7), die Autopsie erfolgt am Tag d 9. Die Rate von vollständig gehemmten Graviditäten in den einzelnen Gruppen ergibt sich aus Tabelle 2. So wurde für die Beispiele 1 (J 1102), 3 (J 1116), 8 (J 1204) und 9 (J 1120) eine um den Faktor 10 überlegene Nidationshemmung gegenüber RU 486 (Mifepriston) ermittelt.

SMILES: COC[C@]1(OC)CC[C@H]2[C@@H]3CCC4=CC(=O)CC[C@]45O[C@]35[C@@H](c3ccc(/C=N/O)cc3)C[C@@]21C [1 ( J 1102)]
relative molare Bindungs-affinität RBA (%) zum Glucocorticoidrezeptor Dexamethason = 100 % [1]: 12%
relative molare Bindungs-affinität RBA (%) zum Progesteronrezeptor Progesteron = 100 % [2]: 88%

SMILES: COC[C@]1(OC)CC[C@H]2[C@@H]3CCC4=CC(=O)CC[C@]45O[C@]35[C@@H](c3ccc(/C=N\O)cc3)C[C@@]21C [2 ( J 1160)]
relative molare Bindungs-affinität RBA (%) zum Glucocorticoidrezeptor Dexamethason = 100 % [1]: 18%
relative molare Bindungs-affinität RBA (%) zum Progesteronrezeptor Progesteron = 100 % [2]: 49%

SMILES: COC[C@]1(O)CC[C@H]2[C@@H]3CCC4=CC(=O)CC[C@]45O[C@]35[C@@H](c3ccc(/C=N/O)cc3)C[C@@]21C [3 ( J 1116)]
relative molare Bindungs-affinität RBA (%) zum Glucocorticoidrezeptor Dexamethason = 100 % [1]: 12%
relative molare Bindungs-affinität RBA (%) zum Progesteronrezeptor Progesteron = 100 % [2]: 47%

SMILES: COC[C@]1(O)CC[C@H]2[C@@H]3CCC4=CC(=O)CC[C@]45O[C@]35[C@@H](c3ccc(/C=N\O)cc3)C[C@@]21C [4 ( J 1182)]
relative molare Bindungs-affinität RBA (%) zum Progesteronrezeptor Progesteron = 100 % [2]: 29%

SMILES: COC[C@]1(OC)CC[C@H]2[C@@H]3CCC4=CC(=O)CC[C@]45O[C@]35[C@@H](c3ccc(/C=N/OC(C)=O)cc3)C[C@@]21C [5 ( J 1130)]
relative molare Bindungs-affinität RBA (%) zum Glucocorticoidrezeptor Dexamethason = 100 % [1]: 15%
relative molare Bindungs-affinität RBA (%) zum Progesteronrezeptor Progesteron = 100 % [2]: 59%

SMILES: COC[C@]1(O)CC[C@H]2[C@@H]3CCC4=CC(=O)CC[C@]45O[C@]35[C@@H](c3ccc(/C=N/OC(C)=O)cc3)C[C@@]21C [6 ( J 1180)]
relative molare Bindungs-affinität RBA (%) zum Glucocorticoidrezeptor Dexamethason = 100 % [1]: 8%
relative molare Bindungs-affinität RBA (%) zum Progesteronrezeptor Progesteron = 100 % [2]: 31%

SMILES: CCOC(=O)O/N=C/c1ccc([C@H]2C[C@@]3(C)[C@@H](CC[C@]3(COC)OC)[C@@H]3CCC4=CC(=O)CC[C@]45O[C@]235)cc1 [9 ( J 1120)]
relative molare Bindungs-affinität RBA (%) zum Glucocorticoidrezeptor Dexamethason = 100 % [1]: 15%
relative molare Bindungs-affinität RBA (%) zum Progesteronrezeptor Progesteron = 100 % [2]: 63%

SMILES: CCNC(=O)O/N=C/c1ccc([C@H]2C[C@@]3(C)[C@@H](CC[C@@]3(O)COC)[C@@H]3CCC4=CC(=O)CC[C@]45O[C@]235)cc1 [16 ( J 1186)]
relative molare Bindungs-affinität RBA (%) zum Glucocorticoidrezeptor Dexamethason = 100 % [1]: 13%
relative molare Bindungs-affinität RBA (%) zum Progesteronrezeptor Progesteron = 100 % [2]: 64%

SMILES: CCNC(=O)O/N=C/c1ccc([C@H]2C[C@@]3(C)[C@@H](CC[C@]3(COC)OC)[C@@H]3CCC4=CC(=O)CC[C@]45O[C@]235)cc1 [17 ( J 1131)]
relative molare Bindungs-affinität RBA (%) zum Glucocorticoidrezeptor Dexamethason = 100 % [1]: 30%
relative molare Bindungs-affinität RBA (%) zum Progesteronrezeptor Progesteron = 100 % [2]: 68%

relative molare Bindungs-affinität RBA (%) zum Glucocorticoidrezeptor Dexamethason = 100 % [1]: 77%
relative molare Bindungs-affinität RBA (%) zum Progesteronrezeptor Progesteron = 100 % [2]: 302%
SMILES: COC[C@]1(OC)CC[C@H]2[C@@H]3CCC4=CC(=O)CCC4=C3[C@@H](c3ccc(/C=N/O)cc3)C[C@@]21C [J 867]
komplette Graviditätshemmung N#/N ([3]; 0,3 mg/Tier/Tag s.c.): 0/5
komplette Graviditätshemmung % ([3]; 0,3 mg/Tier/Tag s.c.): 0%
komplette Graviditätshemmung N#/N ([3]; 1 mg/Tier/Tag s.c.): 5/5
komplette Graviditätshemmung % ([3]; 1 mg/Tier/Tag s.c.): 100%
komplette Graviditätshemmung N#/N ([3]; 3 mg/Tier/Tag s.c.): 5/5
komplette Graviditätshemmung % ([3]; 3 mg/Tier/Tag s.c.): 100%

SMILES: CC#C[C@]1(O)CC[C@H]2[C@@H]3CCC4=CC(=O)CCC4=C3[C@@H](c3ccc(N(C)C)cc3)C[C@@]21C [RU 486, Mifepriston]
relative molare Bindungs-affinität RBA (%) zum Glucocorticoidrezeptor Dexamethason = 100 % [1]: 685%
komplette Graviditätshemmung N#/N ([3]; 0,3 mg/Tier/Tag s.c.): 0/5
komplette Graviditätshemmung % ([3]; 0,3 mg/Tier/Tag s.c.): 0%
komplette Graviditätshemmung N#/N ([3]; 1 mg/Tier/Tag s.c.): 1/5
komplette Graviditätshemmung % ([3]; 1 mg/Tier/Tag s.c.): 20%
komplette Graviditätshemmung N#/N ([3]; 3 mg/Tier/Tag s.c.): 5/5
komplette Graviditätshemmung % ([3]; 3 mg/Tier/Tag s.c.): 100%

relative molare Bindungs-affinität RBA (%) zum Glucocorticoidrezeptor Dexamethason = 100 % [1]: 39%
relative molare Bindungs-affinität RBA (%) zum Progesteronrezeptor Progesteron = 100 % [2]: 22%
SMILES: CN(C)c1ccc([C@H]2C[C@]3(C)[C@@H](CC[C@]3(O)CCCO)[C@@H]3CCC4=CC(=O)CCC4=C32)cc1 [ZK 98299, Onapriston]
